Test [1] deals with T1, terbium chelate-labeled menin / FITC-MBM1 peptide (Menin/MLL) (Homo sapiens, UniProt O00255, T541A).
T1 construct: Menin (a. a. l-610-6×his tag) was labeled with terbium cryptate as follows
T1 sequence (O00255 with tags, fused parts or gaps T541A): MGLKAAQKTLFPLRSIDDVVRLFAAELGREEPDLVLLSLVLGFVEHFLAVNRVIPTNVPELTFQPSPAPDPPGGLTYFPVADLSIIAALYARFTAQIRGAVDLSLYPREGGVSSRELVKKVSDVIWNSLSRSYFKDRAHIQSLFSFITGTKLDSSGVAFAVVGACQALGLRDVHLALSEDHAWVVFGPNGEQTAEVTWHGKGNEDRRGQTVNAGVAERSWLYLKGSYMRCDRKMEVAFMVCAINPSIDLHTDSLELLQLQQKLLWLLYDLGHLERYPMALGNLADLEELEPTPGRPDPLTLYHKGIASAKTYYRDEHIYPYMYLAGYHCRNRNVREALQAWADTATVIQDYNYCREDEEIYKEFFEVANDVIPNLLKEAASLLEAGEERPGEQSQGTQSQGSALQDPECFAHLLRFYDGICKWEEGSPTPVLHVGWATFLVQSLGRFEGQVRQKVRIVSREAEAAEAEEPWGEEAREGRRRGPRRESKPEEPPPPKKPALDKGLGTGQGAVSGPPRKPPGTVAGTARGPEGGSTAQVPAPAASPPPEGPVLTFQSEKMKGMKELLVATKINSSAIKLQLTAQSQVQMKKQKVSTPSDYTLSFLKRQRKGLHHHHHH
In words: Menin/MLL homogenous time-resolved fluorescence (HTRF) assay. It is filed as binding. The note with it: read-out: (2) Menin HTRF assay (IC50 (nM)). The method in brief:
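Terbium cryptate-labeled menin (aa 1-610, 6×His), 100 pM, preincubated 5 min with compound, then 75 nM FITC-MBM1 peptide added for 15 min at ambient temperature. Buffer: 40 mM Tris pH 7.5, 50 mM NaCl, 1 mM DTT, 0.05% Pluronic F-127, 0.5% DMSO. HTRF 520/490 ratio; 11-point threefold titration from 25 μM, IC50 from % inhibition curve.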

The test system of the next test is MOLM14 cells (MLL-AF9). In words: Proliferation assay (spheroid-like growth, 8 d, live-cell imaging), MOLM14. Format: cell-based, human. The following applies: absolute IC50 from AUC of confluence, read-out: (3) Spheroid assay MOLM14 (IC50 (μM)). The procedure: The anti-proliferative effect of menin/MLL protein/protein interaction inhibitor test compounds was assessed in human leukemia cell lines. The cell lines MV-4-1 1 and MOLM14 harbor MEL translocations and express the MEL fusion proteins MLL-AF4 and MLL-AF9, respectively, as well as the wildtype protein from the second allele. […] K562 was used as a control cell line containing two MLL wildtype alleles in order to exclude compounds that display general cytotoxic effects.
MV-4-1 1 and MOLM14 were cultured in RPMI-1640 (Sigma Aldrich) supplemented with 10% fetal bovine serum (HyClone), 2 mM L-glutamine (Sigma Aldrich) and 50 μg/ml gentamycin (Gibco). K562 were propagated in RPMI-1640 (Sigma Aldrich) supplemented with 20% fetal bovine serum (HyClone), 2 mM L-glutamine (Sigma Aldrich) and 50 μg/ml gentamycin (Gibco).
In order to assess the anti-proliferative effects, 1,500 MV-4-1 1, 300 MOLM14 or 750 K562 cells were seeded in 200 μl media per well in 96-well round bottom, ultra-low attachment plates (Costar, catalogue number 7007). Cell seeding numbers were chosen based on growth curves to ensure linear growth throughout the experiment. Test compounds were added at different concentrations and the DMSO content was normalized to 0.3%>. Cells were incubated for 8d at 37° C. and 5% C02. Spheroid like growth was monitored in real-time by live-cell imaging (IncuCyteZOOM, Essenbio, 4× objective) acquiring one image every four hours for 8d. Confluence (%) as a measure of spheroid size was determined using an integrated analysis tool.
In order to determine the cumulative effect of the test compounds over time, the area under the curve (AUC) in a plot of confluence against time was calculated. Confluence at the beginning of the experiment (t=0) was used as baseline for the AUC calculation.
Absolute IC50 values were calculated according to the following procedure: % Control=(AUC sample/AUC control)*100 AUC control=mean AUC of control values(cells without compound/DMSO as vehicle control)
A non-linear curve fit was applied using the least squares (ordinary) fit method to the plot of % control versus compound concentration. Based on this, the absolute IC50 value (half maximal inhibitory concentration of the test compound causing an anti-proliferative effect of 50% relative to the vehicle control) was calculated.

One may read the IC50 as the concentration at which inhibition is half-maximal.

Like-named read-outs stand apart in the source and are kept apart here.

Turning to `FC(F)(F)Cc1cc2c(N3CCC[C@H](NCc4ccccc4)CC3)ncnc2s1` [Compound 4, (S)-N-benzyl-1-(6-(2,2,2-trifluoroethyl)thieno[2,3-d]pyrimidin-4-yl)azepan-4-amine], the concentration for half-maximal inhibition (IC50) in test [1] came out at 330 nM; in the test with MOLM14 cells (MLL-AF9) (Homo sapiens, MOLM-14, 192 h), 7.6 µM.

For the molecule `FC(F)(F)Cc1cc2c(N3CCC[C@@H](NCc4ccccc4)CC3)ncnc2s1` [Compound 3, (R)N-benzyl-1-(6-(2,2,2-trifluoroethyl)thieno[2,3-d]pyrimidin-4-yl)azepan-4-amine], the concentration for half-maximal inhibition (IC50) in test [1] worked out at 14 nM; in the test with MOLM14 cells (MLL-AF9) (Homo sapiens, MOLM-14, 192 h), 3.1 µM.

On to `CC(C)CNC1CCCN(c2ncnc3sc(CC(F)(F)F)cc23)CC1` (single isomer, unassigned) [Compound B1B, N-isobutyl-1-(6-(2,2,2-trifluoroethyl)thieno[2,3-d]pyrimidin-4-yl)azepan-4-amine], for which the figures for the concentration for half-maximal inhibition (IC50) (in test [1]; in the test with MOLM14 cells (MLL-AF9)) were 788 nM and greater than 15 µM, respectively.

Turning to `CC(C)CNC1CCCN(c2ncnc3sc(CC(F)(F)F)cc23)CC1` (single isomer, unassigned) [Compound B1A, N-isobutyl-1-(6-(2,2,2-trifluoroethyl)thieno[2,3-d]pyrimidin-4-yl)azepan-4-amine], the IC50 turned out to be 50 nM in test [1] and 11.3 µM with MOLM14 cells (MLL-AF9) (Homo sapiens, MOLM-14, 192 h).
